Laboratory results as given in PMC7005646, “Overcoming resistance to anabolic SARM therapy in experimental cancer cachexia with an HDAC inhibitor” (EMBO Molecular Medicine, 2020).

How the values were obtained:
tumor‐free mice = tested on: tumor‐free mice; parameters: method as in Tseng et al, 2015a; details: ref Tseng et al, 2015a, cited from earlier work
class I HDACs = test: In vitro HDAC inhibition assay, class I isoforms; type: biochemical, human; details: 1 μM AR‐42; range over isoforms
Description: HDAC activity was measured by a commercial vendor using human recombinant HDAC enzymes and fluorogenic HDAC substrates (Eurofins Cerep SA, Celle L'Evescault, France). Substrate concentrations ranged from 20 to 400 μM, and incubation conditions ranged from 10 to 90 min (RT or 37°C), depending on isoform. Results are expressed as percent inhibition of control specific activity in the presence of 1 μM AR‐42.

C‐26 tumor‐bearing mice = test: Initial AR‐42/GTx‐024 combination study (Study 1), male C‐26 tumor‐bearing mice; type: in vivo, mouse; details: Study 1, male, GTx‐024 15 mg/kg, AR‐42 10 mg/kg, or both
LLC tumor‐bearing mice = test: AR‐42/GTx‐024 combination study in the LLC cachexia model (Study 5); type: in vivo, mouse; details: repeat of Study 5; 10 mg/kg AR‐42, 0.5 mg/kg GTx‐024, or both
Description: This study was performed as previously described (Tseng et al, 2015a) with modifications. Tumors were established in the right hindlimb of male C57BL/6NHsd mice by intramuscular injection of LLC cells (0.5 × 10^6 cells in 0.05 ml). Similar to Study 3, the tumor‐free control group was maintained at six animals, whereas 12 animals were included in each of the tumor‐bearing groups. […] Grip strength, body weight, and food consumption were measured, and tissues were collected as in the previous C‐26 studies.

[1] = tested on: atrogin‐1, MuRF‐1, CEBPδ expression; test: qRT–PCR of atrophy‐related genes in gastrocnemius, Study 1; type: in vivo, mouse; details: GTx‐024 15 mg/kg, AR‐42 10 mg/kg, or both
Description: To generate muscle tissue RNA, 15 mg of gastrocnemius muscle tissue was lysed in 10 volumes of lysis buffer per tissue mass in prefilled 2.0‐ml tubes with 3.0 mm zirconium beads (MIDSCI; St. Louis, MO). Tubes were loaded into BeadBlaster™ 24 (MIDSCI; St. Louis, MO) and […] for five cycles of 5 s with a 30‐s pause between cycles. Lysate was collected, and RNA was isolated using the mirVana™ miRNA Isolation Kit, with phenol (Thermo Fisher; Waltham, MA). Samples were treated with DNA‐free DNA Removal Kit to eliminate any DNA contamination (Invitrogen, Carlsbad, CA). Total RNA (0.5 μg) was reverse‐transcribed using high‐capacity cDNA reverse transcription kit (Applied Biosystems, Foster City, CA) for 10 min at 25°C, 120 min at 37°C, and 5 min at 85°C (T100™ Thermal Cycler, Bio‐Rad). Real‐time qPCR was performed on the QuantStudio 7 system (Applied Biosystems, Foster City, CA) using the powerup SYBR Green Master Mix (Applied Biosystems, Foster City, CA). Cycling was performed using the QuantStudio 7 real‐time PCR software—2 min at 50°C and 10 min at 95°C—followed by 40 cycles of 15 s at 95°C and 1 min at 60°C. […] As transformed expression data are not normally distributed, statistical differences between treatment groups were determined by one‐way ANOVA followed by Dunnett's test on raw delta C t values.

serum cytokines = test: Serum cytokine panel (multiplex), terminal samples from Study 2; type: in vivo, mouse
Description: This confirmatory study was performed exactly as Study 1 with expanded animal numbers. Tumor‐free control groups were maintained at 6 animals each, whereas 10 animals were included in each of the tumor‐bearing groups. […] Grip strength was measured on study days 0 (baseline) and 16. Due to rapid model progression, this study was terminated on day 17 after only 12 days of treatment.
Serum cytokine panel analyses were performed by a commercial vendor (Eve Technologies, Calgary, Canada) as previously described (Tseng et al, 2015a). Serum interleukin‐6 (IL‐6) was measured using a commercial ELISA kit (R&D Systems, Minneapolis, MN, USA) according to the manufacturer's instructions.

[2] = AR‐42 plasma and tissue pharmacokinetics, single oral dose, tumor‐free CD2F1 mice; type: in vivo, mouse; details: for Plasma exposure: mouse
Description: Pharmacokinetic studies were performed as previously described (Cheng et al, 2016) with the following modifications. Seven week‐old, male, tumor‐free CD2F1 mice (n = 3 per dose and time point) were administered single oral doses of 10, 20, and 50 mg/kg AR‐42 and then sacrificed 0.25, 4, and 24 h later. Fifty milligrams of gastrocnemius muscle tissue was flash‐frozen in 2 ml BeadBlaster™ 24 (MIDSCI; St. Louis, MO) tubes and stored at −80°C. Samples were homogenized for 6 cycles using a BeadBlaster 24 with analytical standards in 1 mL methanol and then centrifuged at 15,600 g (4°C) for 10 min. Supernatants were transferred to glass tubes, dried under nitrogen, and then reconstituted in 200 μl 40% methanol/0.1% formic acid. Plasma preparation and LC‐MS/MS analyses were performed as previously described (Sborov et al, 2017). Mouse plasma and muscle pharmacokinetic parameters were estimated as previously described with the exception of Cavg, which was calculated as AUCall/[dosing interval(h)].

[3] = C‐26 Tumor‐bearing, GTx‐024 15 mg/kg, AR‐42 10 mg/kg, or both, mean ± SD

SMILES: CC(C)[C@H](C(=O)Nc1ccc(C(=O)NO)cc1)c1ccccc1 [AR‐42]
- maximally tolerated dose in mice (tumor‐free mice; oral gavage every other day): 50 mg/kg
- effect on lower limb skeletal muscle masses relative to controls (tumor‐free mice; tumor‐free mice, 50 mg/kg every other day): no significant effects on lower limb skeletal muscle masses
- reduction in epididymal adipose tissue masses (tumor‐free mice; tumor‐free mice, 50 mg/kg oral every other day): ~50%
- inhibition of class I HDACs (class I HDACs): 72–95%
- terminal body weight corrected for tumor mass (C‐26 tumor‐bearing mice; day 18, 13 days daily oral): 91.2 ± 3.7 % of tumor‐free controls
- terminal gastrocnemius mass (C‐26 tumor‐bearing mice; day 18): 94.3 ± 1.4 % of tumor‐free controls
- terminal quadriceps mass (C‐26 tumor‐bearing mice; day 18): 93.2 ± 6.3 % of tumor‐free controls
- response of body weight and skeletal muscle mass loss (LLC tumor‐bearing mice): did not respond
- atrogin‐1, MuRF‐1, CEBPδ expression in gastrocnemius relative to tumor‐bearing controls [1]: significantly reduced
- GM‐CSF, serum (serum cytokines; [3]): 18.70 ± 3.77 pg/mL
- G‐CSF, serum (serum cytokines; [3]): 2782.18 ± 2191.30 pg/mL
- IL‐6, serum (serum cytokines; [3]): 256.59 ± 183.1 pg/mL
- IL‐17, serum (serum cytokines; [3]): 1.82 ± 0.85 pg/mL
- IP‐10, serum (serum cytokines; [3]): 215.35 ± 52.46 pg/mL
- KC, serum (serum cytokines; [3]): 363.38 ± 200.65 pg/mL
- LIF, serum (serum cytokines; [3]): 15.79 ± 5.15 pg/mL
- LIX, serum (serum cytokines; [3]): 2515.38 ± 3119.67 pg/mL
- M‐CSF, serum (serum cytokines; [3]): 20.21 ± 4.63 pg/mL
- effect on circulating cytokine levels (serum cytokines; Study 2, 10 mg/kg monotherapy, tumor‐bearing): did not significantly reduce circulating levels of any evaluated cytokine
- AUCall ([2]; 10 mg/kg oral, Muscle): 11,076.7 nM*h
- Cavg ([2]; 10 mg/kg oral, Muscle): 461.5 nM
- Cmax ([2]; 10 mg/kg oral, Muscle): 1.11 µM
- AUCall ([2]; 10 mg/kg oral, Plasma): 10,931.6 nM*h
- Cmax ([2]; 10 mg/kg oral, Plasma): 1.5 µM
- Cavg ([2]; 10 mg/kg oral, Plasma, AUCall/dosing interval): 455.5 nM
- gastrocnemius muscle concentration ([2]; 10 mg/kg oral, remained above for 4 h): above 700 nM
- AUCall ([2]; 20 mg/kg oral, Muscle): 36,504.2 nM*h
- Cavg ([2]; 20 mg/kg oral, Muscle): 1,521.0 nM
- Cmax ([2]; 20 mg/kg oral, Muscle): 3.66 µM
- AUCall ([2]; 20 mg/kg oral, Plasma): 34,369.3 nM*h
- Cavg ([2]; 20 mg/kg oral, Plasma): 1,432.1 nM
- Cmax ([2]; 20 mg/kg oral, Plasma): 3.86 µM
- AUCall ([2]; 50 mg/kg oral, Muscle): 72,624.7 nM*h
- Cavg ([2]; 50 mg/kg oral, Muscle): 3,026.2 nM
- Cmax ([2]; 50 mg/kg oral, Muscle): 6.37 µM
- AUCall ([2]; 50 mg/kg oral, Plasma): 74,307.3 nM*h
- Cavg ([2]; 50 mg/kg oral, Plasma): 3,096.1 nM
- Cmax ([2]; 50 mg/kg oral, Plasma): 7.93 µM
- mouse plasma exposure at 50 mg/kg over well‐tolerated human exposure ([2]; 74.3 vs 8.5 μM*h): 8.7 fold
- Plasma exposure ([2]; single oral dose 10 mg/kg): 10.9 µM·h
- Plasma exposure ([2]; single oral dose 50 mg/kg): 74.3 µM·h
